# Measurements taken from patent US20240010679A1, “ANTIN[…] AND USES THEREOF” (THE UNIVERSITY OF BRITISH COLUMBIA, priority 2020, published 2024).
# Where “and” joins values, the source holds several entries; their conditions need not be identical. Identical values can stand only once. Entries after “also recorded” stand apart in the source; their conditions may differ. Like-named read-outs stand apart in the source and are kept apart here.
# Key:
# human DOR = human DOR (Homo sapiens, UniProt P41143); conditions: relative scintillation compared to Leu-ENK at 6 nmol/L, [3H]DADLE displacement, mean of duplicates
# Chain of human DOR (P41143 whole entry): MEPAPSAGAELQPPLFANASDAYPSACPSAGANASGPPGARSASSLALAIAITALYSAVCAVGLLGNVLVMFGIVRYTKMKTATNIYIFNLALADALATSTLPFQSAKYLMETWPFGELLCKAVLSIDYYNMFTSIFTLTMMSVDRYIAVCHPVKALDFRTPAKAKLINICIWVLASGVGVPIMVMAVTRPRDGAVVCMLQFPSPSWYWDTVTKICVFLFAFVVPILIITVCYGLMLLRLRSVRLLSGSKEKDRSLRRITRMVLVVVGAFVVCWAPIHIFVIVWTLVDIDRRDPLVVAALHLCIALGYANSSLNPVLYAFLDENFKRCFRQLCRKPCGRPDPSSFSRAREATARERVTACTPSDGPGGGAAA
# Method: Binding studies were performed by Eurofins Scientific (Cereb, France). Briefly, COS-1 cells transfected with plasmids encoding human DOR (Gene ID: 4985) were grown in Dulbecco's modified Eagle's medium with 10% fetal calf serum and scraped from plates. Membranes were prepared using a Dounce homogenizer and stored at −80° C. until used. Membranes (40 μg protein/tube) were suspended in Tris-HCl, pH 7.4, for 2 h at 25° C., rapidly filtered on 0.1% polyethylenimine-pretreated GF/B filters and washed with the same cold Tris buffer (3×) using a Brandel cell harvester. […] Nonspecific binding was determined in the presence of naltrexone (10 μmol/L).
# Plasma stability assay = assay type: in vitro ADME, mouse; conditions: for remaining at 1 h, 0.315 mmol/L: mouse plasma, 37° C., read-out: Intact peptide after 1 h in plasma
# Method: (§1) Peptides (1.5 g/L) dissolved in saline/TWEEN 80/DMSO (90:5:5, v/v) were mixed with mouse plasma or human cerebrospinal fluid, respectively, to a final concentration of 0.315 mmol/L and incubated in a thermomixer (37° C., 750 rpm) Aliquots (45 μL) were mixed with aqueous acetonitrile (90%, v/v, 300 μL) containing formic acid (FA, 0.1%, v/v) and incubated on ice (30 min). After two centrifugation steps (12,000×g, 5 min), the supernatant (300 μL) was diluted in water (900 μL), dried by lyophilization, reconstituted in aqueous acetonitrile (4.5%, v/v) containing FA (0.1%, v/v), stored at −20° C., and analyzed with reverse-phase chromatography (RPC) on a C8-column (1 mm×150 mm) with a linear aqueous acetonitrile gradient typically from 5 to 95% eluent B in 15 min (eluent A: 0.1% (v/v) aqueous FA; eluent B: 90% aqueous acetonitrile containing 0.1% (v/v) FA. The RPC was coupled on-line to a UV detector measuring the absorbance at 214 nm and a mass spectrometer (MS) for peak identification. Peptide quantities were estimated using peak areas of the UV signal relative to the initial peak areas (t=0).
# female CD-1 mice [1] = assay: Respiratory rate assay; conditions: s.c.; for breathing depression: KK-103 13 mg/kg, morphine 10 mg/kg, FIG. 10C
# Method: The respiratory rate was assessed in awake mice lightly restrained in a well-ventilated 50 mL falcon tube with a darkened tip. Prior to the drug treatment, each animal was habituated in the tube for 30 min. The falcon tube was secured onto a stand facing lengthwise to a video camera. […] Animals were recorded at selected time points for 10 min to measure the respiration rate.
# female CD1 mice [2] = assay: Dependence test (naloxone-induced jumps); conditions: twice daily s.c., KK-103 13 mg/kg, morphine 10 mg/kg; naloxone 4 mg/kg i.p., first 10 min
# female CD1 mice [3] = conditions: mouse, in vivo; cited from earlier work
# female CD-1 mice [4] = assay: Formalin foot assay; assay type: in vivo, mouse; conditions: s.c.
# Method: (§2) Mice were allowed an acclimatization period of at least one week in the animal facility before experiments.
# On the day of the experiment, mice were acclimatized to the experimental setup by putting them in darkened, non-transparent plexiglas cylinders (height, 20 cm; diameter, 9 cm) placed on a glass plane for 2 h. […] After successful injection, mice were immediately placed into cylinders and their behavior was monitored for 1 h. […] The accumulated licking and biting time of each animal was determined and recorded in 5 min bins. The total response time was plotted as early phase 1 from 0 to 5 min, and late phase 2 from 20 to 40 min after formalin injection.
# [5] = Stability in the presence of human liver microsomes; assay type: in vitro ADME; conditions: after 1 h, read-out: drug degradation in the presence of human liver microsomes
# [6] = test system: human liver microsome enzymes; assay: Inhibition of human liver microsome enzymes; assay type: in vitro ADME
# [7] = Plasma and brain concentrations after injection (UPLC); assay type: in vivo; conditions: female, CD-1, mouse; for tissue level at time at 2 h: 2 h after s.c. injection; for half-life: 50 mg/kg, read-out: elimination half-life
# Method: Blood collection from mice was performed by saphenous vein punctuation (volume withdrawn <7 mL/kg) followed by a cardiac puncture later, allowing for 2 sampling time points per animal with a minimum sampling interval of 50 min. Cardiac puncture was an experimental endpoint after which animals were euthanized using isoflurane followed by cervical dislocation. Blood samples were collected in EDTA coated collection tubes and chilled on ice immediately after collection. Blood plasma was separated from whole blood by centrifugation at 2.000 g for 7 min and carefully removed from the cell pellet. Blood plasma samples were immediately frozen on dry ice and stored at −80 C until further analysis.
# Samples for liquid chromatography-mass spectrometry analysis were prepared by acetonitrile protein precipitation. Therefore, 50 μL of plasma was combined with 300 μL ice cold 90% acetonitrile containing 0.1% formic acid, briefly vortexed and put on ice for 30 min. After that samples were centrifuged at 4 C for 5 min (>12 k rpm) and supernatant (325 μL) transferred in a new tube. The previous centrifugation step was repeated and a final volume of 305 μL of the supernatant transferred into a new 1.5 mL tube. Water (800 μL) was added to samples after which they were frozen and lyophilized. The dried samples were resolubilized in 50 μL 4.5% acetonitrile, 0.1% formic acid in water, vortexed (1 min), sonicated (5 min), vortexed (1 min) and centrifuged for 5 min (>12 k rpm). Samples were measured in an ACQUITY UPLC H-Class chromatography system (Waters, Milford, MA) and a sample volume of 10 μL was injected onto the reverse phase column.
# An ACQUITY UPLC H-Class chromatography system (Waters, Milford, MA) coupled on-line to a photodiode array detector (absorbance recorded at 214 nm, Waters) and to the electrospray ionization source on a mass spectrometer (QDa detector, Waters) operated in the positive ion mode was used. Separation relied on a BEH-C18 column (inner diameter: 1.1 mm; length: 50 mm; particle size: 1.7 μm, Waters) at a flow rate of 0.1 mL/min using a linear aqueous acetonitrile gradient in the presence of FA (0.1%, v/v).
# Ionization was carried out at a source temperature of 450° C. using a cone voltage of 10 V and a capillary voltage of 1.5 kV. Mass spectra were typically acquired for an m/z range from 50 to 1250 at a sampling rate of 2 points per second. Quantities of the peptide were determined based on a calibration curve of the analyte in mouse plasma and the peak areas of the UV signal at 214 nm as well as mass spectrometry by detecting the singly charged molecular ions.
# [8] = Solubility in injection vehicle; assay type: physicochemical; conditions: normal saline/TWEEN 80 (9/1, v/v) injection vehicle
# female CD-1 mice [9] = assay: Open field test; conditions: 15 mg/kg s.c.
# Description: as §2
# female CD1 mice [10] = assay: Toxicity, highest deliverable single dose; assay type: in vivo, mouse; conditions: single s.c. dose
# Method: Animals were monitored and evaluated every 30 min. After 3 h, the time of maximal antinociceptive effect, animals were euthanized.
# CSF stability assay = assay type: in vitro ADME, human; conditions: 5 h of incubation
# Method: as §1
structure (smiles),measurement,setting,value
COC(=O)[C@H](CC(C)C)NC(=O)[C@H](Cc1ccccc1)NC(=O)CNC(=O)CNC(=O)[C@H](Cc1ccc(O)cc1)NC(C)=O [KK-14],Relative Binding to DOR,human DOR,38%
same,"remaining at 1 h, 0.315 mmol/L",Plasma stability assay,82 ± 3%
CCCCCC(=O)N[C@@H](Cc1ccc(O)cc1)C(=O)NCC(=O)NCC(=O)N[C@@H](Cc1ccccc1)C(=O)N[C@@H](CC(C)C)C(=O)OC [KK-93],Relative Binding to DOR,human DOR,33%
same,"remaining at 1 h, 0.315 mmol/L",Plasma stability assay,85 ± 11%
CN1CC[C@]23c4c5ccc(O)c4O[C@H]2[C@@H](O)C=C[C@H]3[C@H]1C5 [morphine],decrease of respiratory rate compared with vehicle control,"female CD-1 mice [1]; 10 mg/kg, 30 min post injection",56%
same,breathing depression,female CD-1 mice [1],significant reduction of breathing rate
same,physical dependence: withdrawal jumps after naloxone,female CD1 mice [2],significant withdrawal syndromes
same,dose up to which safe to use,female CD1 mice [3],up to 60 mg/kg
same,"nociceptive response in phase 2, in words","female CD-1 mice [4]; 10 mg/kg, phase 2 (20-40 min)",completely diminished the nociceptive response
same,"reduction of paw licking and biting time, phase 1 (0-5 min), compared to the control","female CD-1 mice [4]; morphine 10 mg/kg, KK-103 13 mg/kg",30%
C=CCCC(=O)N[C@@H](Cc1ccc(O)cc1)C(=O)NCC(=O)NCC(=O)N[C@@H](Cc1ccccc1)C(=O)N[C@@H](CC(C)C)C(=O)OC [KK-108],Relative Binding to DOR,human DOR,34%
same,"remaining at 1 h, 0.315 mmol/L",Plasma stability assay,73 ± 7%
COC(=O)[C@H](CC(C)C)NC(=O)[C@H](Cc1ccccc1)NC(=O)CNC(=O)CNC(=O)[C@H](Cc1ccc(O)cc1)NC(=O)Cc1ccccc1 [KK-81],Relative Binding to DOR,human DOR,41%
same,"remaining at 1 h, 0.315 mmol/L",Plasma stability assay,88 ± 11%
COC(=O)[C@H](CC(C)C)NC(=O)[C@H](Cc1ccccc1)NC(=O)CNC(=O)CNC(=O)[C@H](Cc1ccc(O)cc1)NC(=O)C(C)(C)C [KK-102],Relative Binding to DOR,human DOR; listed as KK-102/ KK-103,68%
same,conversion in mouse plasma (deesterification of methyl ester),Plasma stability assay,converting to KK-103; also recorded: rapidly deesterifies to KK-103
same,"remaining at 1 h, 0.315 mmol/L",Plasma stability assay,93 ± 1%
COC(=O)[C@H](CC(C)C)NC(=O)[C@H](Cc1ccccc1)NC(=O)CNC(=O)CNC(=O)[C@H](Cc1ccc(O)cc1)NC(=O)C1CCCCC1 [KK-112],Relative Binding to DOR,human DOR,13%
same,"remaining at 1 h, 0.315 mmol/L",Plasma stability assay,62 ± 7%
"CC(C)C[C@H](NC(=O)[C@H](Cc1ccccc1)NC(=O)CNC(=O)CNC(=O)[C@@H](N)Cc1ccc(O)cc1)C(=O)O [Leu-ENK, YGGFL, reference compound]","remaining at 1 h, 0.315 mmol/L",Plasma stability assay,23 ± 3%
CC(C)C[C@H](NC(=O)[C@H](Cc1ccccc1)NC(=O)CNC(=O)CNC(=O)[C@H](Cc1ccc(O)cc1)NC(=O)C(C)(C)C)C(=O)O [KK-103],metabolised at 1 h,[5],< 10%
same,inhibition of human liver microsome enzymes,[6],did not inhibit
same,respiration rate versus vehicle,"female CD-1 mice [1]; 13 mg/kg, any time point between 30 and 240 min",comparable to that of mice treated with vehicle
same,breathing depression,female CD-1 mice [1],did not induce breathing depression
same,Relative Binding to DOR,human DOR,65% and ~70%
same,tissue level at time at 2 h,"[7]; brain, sc, read-out: concentration in brain",200 ng/g
same,half-life,"[7]; plasma, iv",4.8 min
same,half-life,"[7]; plasma, sc",8.9 min
same,tissue level at time at 2 h,"[7]; plasma, sc, read-out: concentration in plasma",170000 ng/g
same,physical dependence: withdrawal jumps after naloxone,female CD1 mice [2],not a single jump was observed
same,solubility,[8],5000 µg/mL
same,effect on locomotor activity,female CD-1 mice [9],without effecting the locomotor activity
same,time stable in mouse plasma,Plasma stability assay,at least 5 h
same,half-life in mouse plasma,Plasma stability assay; extrapolated,36 h
same,"remaining at 1 h, 0.315 mmol/L",Plasma stability assay,93%
same,half-life at 0.315 mmol/L,"Plasma stability assay; mouse, plasma, extrapolated",37 h
same,toxicity at the highest deliverable dose,female CD1 mice [10],no toxicity
same,stability in cerebrospinal fluid,CSF stability assay,almost no degradation
CCCCCCCC(=O)N[C@@H](Cc1ccc(O)cc1)C(=O)NCC(=O)NCC(=O)N[C@@H](Cc1ccccc1)C(=O)N[C@@H](CC(C)C)C(=O)OC [KK-105],Relative Binding to DOR,human DOR,59%
same,"remaining at 1 h, 0.315 mmol/L",Plasma stability assay,80 ± 12%
